Ends that are not written are not given here.
Legend:
[1] = test system: RMAS cells pulsed with a WT1126 peptide (MHC class I); assay: WT1-specific immune response in spleen cells of tumor-implanted mice (cytotoxic activity, WT1 tetramer FACS); format: in vivo, mouse
Protocol: Next, mice were dissected on the 29th day after starting the above experiment, the spleen was excised, and a WT1-specific immune response was analyzed using spleen cells. Briefly, the spleen was excised when mice of the WT13 5 helper peptide (MHC class II)-immunized group and the control group were dissected, and spleen cells were prepared. The spleen cells were stimulated once with a WT11 2 6 peptide (MHC class I), and on the 6th day after the stimulation, cytotoxic activity of the spleen cells was measured using RMAS cells pulsed with a WT11 2 6 peptide (MHC class I) as a target cell. As a control, the cytotoxic activity of the spleen cells was measured using RMAS cells as a target cell. […] The WT1-specific cytotoxic T cells were not induced in one mouse. Also, it was clear that the induction of the WT1-specific cytotoxic T cells was lower as compared with the WT13 5 helper peptide (MHC class II)-immunized group (FIGS. 9 and 10).
Next, specific cytolysis was analyzed in mice of the above WT135 helper peptide (MHC class II)-immunized group and control group. […] Also, the above-prepared spleen cells and a fluorescence-labeled WT1 tetramer (H-2 Db WT1 Tetramer-[…]-PE) were incubated at 4° C. for 20 minutes, washed, then stained with fluorescence-labeled CD3 and CD8 antibodies, again washed, and analyzed by FACS. […]

[2] = test system: spleen cells of immunized mice; assay: WT1 peptide-specific cell lines, cell proliferation ability (3H incorporation); format: cell-based, mouse; settings: for proliferation reaction with MHC class I antibody or MHC class II antibody added (3H incorporation): 4th stimulation with peptide-pulsed stimulator, antibody added to the culture solution, FIG. 2A-2C; for proliferation reaction in response to stimulator pulsed with the peptide (3H incorporation): spleen cells of mice immunized with the same peptide, 4th stimulation with irradiated peptide-pulsed spleen cells of non-immunized mice, FIG. 1A-1C
Protocol: First, the above WT1 peptides were emulsified with a Freund's incomplete adjuvant (Montanide ISA 51), and mice were intradermally inoculated with each WT1 peptide in an amount corresponding to 100 μg/mouse. The immunization was carried out 3 times at intervals of one week, the spleen was removed after 1 week of the final immunization, and spleen cells were prepared. The spleen cells were stimulated 3 times at intervals of 10 days using spleen cells of non-immunized mice, which were pulsed with the same WT1 peptide as that used for immunization of each mouse and irradiated, as a stimulator. Then, the 4th stimulation was carried out using spleen cells of non-immunized mice, which were pulsed with each peptide (WT13 5, WT18 6 or WT12 9 4 peptide) as shown in Table 7 and irradiated, as a stimulator, and proliferation reaction in response to each stimulator was measured by a ^3H incorporation experiment. An OVA (ovalbumin) peptide irrelevant to WT1 peptides was used as a control peptide. As a result, mouse spleen cells immunized with a WT13 5 peptide, a WT18 6 peptide or a WT12 9 4 peptide each responded to the stimulator pulsed with a WT13 5 peptide, a WT18 6 peptide or a WT12 9 4 peptide, and proliferated (FIG. 1A to 1C).
As described above, spleen cells were stimulated in vitro 3 times at intervals of 10 days using spleen cells of non-immunized mice, which were pulsed with each WT1 peptide and irradiated. When the 4th stimulation was then carried out using spleen cells of non-immunized mice, which were pulsed with each peptide described above and irradiated, as a stimulator, and proliferation reaction was measured, an MHC class I antibody (D^b antibody) or an MHC class II antibody (Ab antibody) was added to the culture solution and ^3H incorporation was measured.

C1498 cells = assay: Proliferation reaction of WT1 peptide-specific cell lines to C1498 stimulator cells (3H incorporation); format: cell-based, mouse; settings: irradiated C1498 stimulators; FIG. 3
Protocol: As described above, spleen cells were stimulated in vitro 3 times at intervals of 10 days using spleen cells of non-immunized mice, which were pulsed with each WT1 peptide and irradiated. Then, the proliferation reaction was measured by ^3H incorporation using irradiated C1498 cells not expressing any WT1 protein, C1498 cells pulsed with each of the above WT1 peptides, or C1498 cells expressing a WT1 protein by introduction of a WT1 gene, as a stimulator.

Sequence	WT1-specific cytotoxic T cells (specific cytolysis; CD3-, CD8- and WT1 tetramer-positive cells) versus control group ([1]; spleen cells of tumor-implanted mice, p<0.05, FIG. 11)	induction of WT1-specific cytotoxic T cells (cytotoxic activity of spleen cells) ([1]; spleen excised on 29th day, stimulated once with WT1126 peptide, measured on 6th day, FIG. 9)	proliferation reaction with MHC class I antibody or MHC class II antibody added (3H incorporation) [2]	proliferation reaction in response to stimulator pulsed with the peptide (3H incorporation) [2]	proliferation reaction in response to C1498 cells pulsed with peptide or expressing a WT1 protein (3H incorporation) (C1498 cells)
WAPVLDFAPPGASAYGSL [WT135]	significantly high	induced in all 4 mice	–	–	–
EQCLSAFTLHFSGQFTG (listed as Mus musculus) [WT186]	–	–	suppressed by the addition of an MHC class II antibody	proliferated	produced by an intracellular process of an endogenous WT1 protein and displayed on an MHC class II molecule
FRGIQDVRRVSGVAPTLVR (listed as Mus musculus) [WT1294]	–	–	suppressed by the addition of an MHC class II antibody	proliferated	produced by an intracellular process of an endogenous WT1 protein and displayed on an MHC class II molecule
